pIC50: −log10 of the molar value.
How the values were obtained:
[1] = target: T1, Human PDGFRα, cytoplasmic domain (GST-PDGFRα) (Homo sapiens, UniProt P16234); test: Human PDGFRα biochemical inhibition assay (off-chip Mobility Shift Assay)
T1 construct: made in house

[2] = target: T2, Human PDGFRβ, cytoplasmic domain (GST-PDGFRβ) (Homo sapiens, UniProt P09619); test: Human PDGFRβ biochemical inhibition assay (off-chip Mobility Shift Assay)
T2 construct: made in house
How it was run: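 GST-tagged cytoplasmic domain (aa 557-1106) from baculovirus was incubated 1 h at room temperature with compound, CSKtide, ATP at Km and Mg²⁺ in HEPES buffer, pH 7.5. Phosphorylated and unphosphorylated peptide were separated by off-chip mobility shift, and the product ratio P/(P+S) gave percent inhibition.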

T1 sequence (P16234 550-1089 T674I): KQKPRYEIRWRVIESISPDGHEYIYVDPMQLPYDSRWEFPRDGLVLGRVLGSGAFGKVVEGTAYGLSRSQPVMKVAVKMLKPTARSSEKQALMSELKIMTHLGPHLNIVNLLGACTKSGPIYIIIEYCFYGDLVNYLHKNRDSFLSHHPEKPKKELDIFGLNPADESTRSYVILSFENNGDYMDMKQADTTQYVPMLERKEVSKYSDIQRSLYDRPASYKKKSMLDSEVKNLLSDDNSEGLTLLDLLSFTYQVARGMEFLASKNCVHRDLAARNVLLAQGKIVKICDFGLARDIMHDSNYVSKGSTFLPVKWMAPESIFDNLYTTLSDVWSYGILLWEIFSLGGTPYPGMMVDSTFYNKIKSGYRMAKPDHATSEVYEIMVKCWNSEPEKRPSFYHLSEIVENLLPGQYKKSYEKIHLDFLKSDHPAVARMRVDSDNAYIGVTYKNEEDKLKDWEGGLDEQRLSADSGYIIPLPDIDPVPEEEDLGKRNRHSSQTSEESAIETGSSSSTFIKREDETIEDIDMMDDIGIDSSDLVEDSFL
T2 sequence (P09619 with tags, fused parts or gaps): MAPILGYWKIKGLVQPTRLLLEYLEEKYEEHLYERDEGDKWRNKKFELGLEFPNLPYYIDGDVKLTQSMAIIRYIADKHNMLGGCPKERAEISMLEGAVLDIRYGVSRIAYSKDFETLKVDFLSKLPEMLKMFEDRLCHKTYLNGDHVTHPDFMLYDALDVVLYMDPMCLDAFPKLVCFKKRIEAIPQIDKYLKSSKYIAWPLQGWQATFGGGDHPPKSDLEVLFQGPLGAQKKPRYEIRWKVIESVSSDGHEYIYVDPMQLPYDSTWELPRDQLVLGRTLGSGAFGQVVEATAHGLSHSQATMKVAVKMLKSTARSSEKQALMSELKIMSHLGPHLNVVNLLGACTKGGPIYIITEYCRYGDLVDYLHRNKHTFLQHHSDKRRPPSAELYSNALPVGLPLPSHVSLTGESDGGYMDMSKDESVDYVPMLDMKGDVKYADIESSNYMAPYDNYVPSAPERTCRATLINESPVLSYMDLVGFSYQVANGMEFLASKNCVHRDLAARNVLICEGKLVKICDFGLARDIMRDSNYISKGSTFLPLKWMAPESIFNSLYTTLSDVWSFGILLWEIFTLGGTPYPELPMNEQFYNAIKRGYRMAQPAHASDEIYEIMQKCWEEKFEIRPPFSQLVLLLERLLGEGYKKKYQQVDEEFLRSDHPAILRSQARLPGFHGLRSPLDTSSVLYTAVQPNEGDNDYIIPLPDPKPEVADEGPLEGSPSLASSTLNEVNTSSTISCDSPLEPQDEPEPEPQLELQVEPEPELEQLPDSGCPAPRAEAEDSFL

pIC50 [1]	pIC50 [2]	SMILES
> 6.52	> 6.52	CCn1cc2ncc(N[C@@H](C)c3cccc(NC(=O)c4ccc(CN5CCN(C)CC5)c(C(F)(F)F)c4)c3)nc2n1 [Compound 423, (S)-N-(3-(1-((2-ethyl-2H-pyrazolo[3,4-b]pyrazin-6-yl)amino)ethyl)phenyl)-4-((4-methylpiperazin-1-yl)methyl)-3-(trifluoromethyl)benzamide]
> 6.52	> 6.52	CCn1cc2ncc(N[C@@H](C)c3cccc(NC(=O)c4cnc(N5CCN(C)CC5)c(Cl)c4)c3)nc2n1 [Compound 421, (S)-5-chloro-N-(3-(1-((2-ethyl-2H-pyrazolo[3,4-b]pyrazin-6-yl)amino)ethyl)phenyl)-6-(4-methylpiperazin-1-yl) nicotinamide]
> 6.52	6.00 to 6.52	CCn1cc2ncc(N[C@@H](C)c3cc(NC(=O)Cc4cncc(Cl)c4)ccc3F)nc2n1 [Compound 663, (S)-2-(5-chloropyridin-3-yl)-N-(3-(1-((2-ethyl-2H-pyrazolo[3,4-b]pyrazin-6-yl)amino)ethyl)-4-fluorophenyl)acetamide]
> 6.52	> 6.52	CCn1cc2ncc(N[C@@H](C)c3cccc(NC(=O)c4ccc(N5CCCC5)c(F)c4)c3)nc2n1 [Compound 441, (S)-N-(3-(1-((2-ethyl-2H-pyrazolo[3,4-b]pyrazin-6-yl)amino)ethyl)phenyl)-3-fluoro-4-(pyrrolidin-1-yl)benzamide]
> 6.52	> 6.52	CCn1cc2ncc(N[C@@H](C)c3cc(NC(=O)c4cnc(C#N)c(C)c4)ccc3F)nc2n1 [Compound 306, (S)-6-cyano-N-(3-(1-((2-ethyl-2H-pyrazolo[3,4-b]pyrazin-6-yl)amino)ethyl)-4-fluorophenyl)-5-methylnicotinamide]
> 6.52	> 6.52	C[C@H](Nc1cnc2cnn(C)c2n1)c1cccc(NC(=O)c2cnc3cnn(C)c3c2)c1 [Compound 48, (S)-1-methyl-N-(3-(1-((1-methyl-1H-pyrazolo[3,4-b]pyrazin-6-yl)amino)ethyl)phenyl)-1H-pyrazolo[4,3-b] pyridine-6-carboxamide]
6.00 to 6.52	6.00 to 6.52	Cc1cncc(C(=O)Nc2cccc([C@H](C)Nc3cnc4cn(CC(C)C)nc4n3)c2)c1 [Compound 276, (S)-N-(3-(1-((2-isobutyl-2H-pyrazolo[3,4-b]pyrazin-6-yl)amino)ethyl)phenyl)-5-methylnicotinamide]
> 6.52	≤ 6.00	CCn1cc2ncc(N[C@@H](C)c3cc(NC(=O)Cc4cc(CN5CCN(C)CC5)c(C)cn4)ccc3C)nc2n1 [Compound 722, (S)-N-(3-(1-((2-ethyl-2H-pyrazolo[3,4-b]pyrazin-6-yl)amino)ethyl)-4-methylphenyl)-2-(5-methyl-4-((4-methylpiperazin-1-yl)methyl)pyridin-2-yl)acetamide]
> 6.52	6.00 to 6.52	CCn1cc2ncc(N[C@@H](C)c3cccc(NC(=O)c4ccc(CN5CC6(C5)CC6(F)F)c(C)c4)c3)nc2n1 [Compound 461]
> 6.52	> 6.52	CCn1cc2ncc(N[C@@H](C)c3cccc(NC(=O)c4ccc(CN5CCC6(COC6)C5)c(C)c4)c3)nc2n1 [Compound 460, (S)-4-((2-oxa-6-azaspiro[3.4]octan-6-yl)methyl)-N-(3-(1-((2-ethyl-2H-pyrazolo[3,4-b]pyrazin-6-yl)amino)ethyl)phenyl)-3-methylbenzamide]
> 6.52	≤ 6.00	C[C@H](Nc1cnc2cnn(C)c2n1)c1cccc(NC(=O)c2ccc(C#N)nc2)c1 [Compound 117, (S)-6-cyano-N-(3-(1-((1-methyl-1H-pyrazolo[3,4-b]pyrazin-6-yl)amino)ethyl)phenyl) nicotinamide]
6.00 to 6.52	≤ 6.00	Cc1ncc(C(F)(F)F)cc1C(=O)Nc1cccc([C@H](C)Nc2cnc3cnn(C)c3n2)c1 [Compound 126, (S)-2-methyl-N-(3-(1-((1-methyl-1H-pyrazolo[3,4-b]pyrazin-6-yl)amino)ethyl)phenyl)-5-(trifluoromethyl) nicotinamide]
> 6.52	6.00 to 6.52	CCn1cc2ncc(N[C@@H](C)c3cccc(NC(=O)c4ccc5c(c4)OCO5)c3)nc2n1 [Compound 64, (S)-N-(3-(1-((2-ethyl-2H-pyrazolo[3,4-b]pyrazin-6-yl)amino)ethyl)phenyl) benzo[d][1,3]dioxole-5-carboxamide]
> 6.52	> 6.52	CCn1cc2ncc(N[C@@H](C)c3cccc(NC(=O)c4ccc(F)c(Cl)c4)c3)nc2n1 [Compound 343, (S)-3-chloro-N-(3-(1-((2-ethyl-2H-pyrazolo[3,4-b]pyrazin-6-yl)amino)ethyl)phenyl)-4-fluorobenzamide]
> 6.52	> 6.52	CCn1cc2ncc(N[C@@H](C)c3cccc(NC(=O)c4ccc(N5CCOCC5)c(F)c4)c3)nc2n1 [Compound 366, (S)-N-(3-(1-((2-ethyl-2H-pyrazolo[3,4-b]pyrazin-6-yl)amino)ethyl)phenyl)-3-fluoro-4-morpholinobenzamide]
> 6.52	> 6.52	CCn1cc2ncc(N[C@@H](C)c3cc(NC(=O)Cc4ccc(F)c(C)n4)ccc3F)nc2n1 [Compound 674, (S)-N-(3-(1-((2-ethyl-2H-pyrazolo[3,4-b]pyrazin-6-yl)amino)ethyl)-4-fluorophenyl)-2-(5-fluoro-6-methylpyridin-2-yl) acetamide]
> 6.52	> 6.52	CCn1cc2ncc(N[C@@H](C)c3cc(NC(=O)c4cncc(C)c4)ccc3C)cc2n1 [Compound 501, (S)-N-(3-(1-((2-ethyl-2H-pyrazolo[4,3-b]pyridin-6-yl)amino)ethyl)-4-methylphenyl)-5-methylnicotinamide]
> 6.52	> 6.52	C[C@H](Nc1cnc2cnn(C)c2n1)c1cccc(NC(=O)c2cnn(C3CC3)c2)c1 [Compound 150, (S)-1-cyclopropyl-N-(3-(1-((1-methyl-1H-pyrazolo[3,4-b]pyrazin-6-yl)amino)ethyl)phenyl)-1H-pyrazole-4-carboxamide]
> 6.52	6.00 to 6.52	COc1ccc(C(=O)Nc2cccc([C@H](C)Nc3cnc4cnn(C)c4n3)c2)cn1 [Compound 122, (S)-6-methoxy-N-(3-(1-((1-methyl-1H-pyrazolo[3,4-b]pyrazin-6-yl)amino)ethyl)phenyl)nicotinamide]
> 6.52	> 6.52	Cc1cncc(C(=O)Nc2cccc([C@H](C)Nc3cnc4ccc(Br)cc4n3)c2)c1 [Compound 39, (S)-N-(3-(1-((7-bromoquinoxalin-2-yl)amino)ethyl)phenyl)-5-methylnicotinamide]
> 6.52	6.00 to 6.52	CCn1cc2ncc(N[C@@H](C)c3cc(NC(=O)Cc4ccc(Cl)cn4)ccc3F)nc2n1 [Compound 650, (S)-2-(5-chloropyridin-2-yl)-N-(3-(1-((2-ethyl-2H-pyrazolo[3,4-b]pyrazin-6-yl)amino)ethyl)-4-fluorophenyl)acetamide]
> 6.52	≤ 6.00	CCn1cc2ncc(N[C@@H](C)c3cc(NC(=O)Cc4ccc(C(C)C)cn4)ccc3C)nc2n1 [Compound 710, (S)-N-(3-(1-((2-ethyl-2H-pyrazolo[3,4-b]pyrazin-6-yl)amino)ethyl)-4-methylphenyl)-2-(5-isopropylpyridin-2-yl) acetamide]
6.00 to 6.52	≤ 6.00	COC(=O)c1ccc(C(=O)Nc2cccc([C@H](C)Nc3cnc4cnn(C)c4n3)c2)cn1 [Compound 212, methyl (S)-5-((3-(1-((1-methyl-1H-pyrazolo[3,4-b]pyrazin-6-yl)amino)ethyl)phenyl)carbamoyl) picolinate]
> 6.52	> 6.52	Cc1cncc(C(=O)Nc2cccc([C@H](C)Nc3cnc4ccsc4c3)c2)c1 [Compound 606, (S)-5-methyl-N-(3-(1-(thieno[3,2-b]pyridin-6-ylamino)ethyl)phenyl) nicotinamide]
> 6.52	> 6.52	Cc1cc(C(=O)Nc2cccc([C@H](C)Nc3cnc4[nH]cc(C)c4n3)c2)cnc1C(F)(F)F [Compound 559, (S)-5-methyl-N-(3-(1-((7-methyl-5H-pyrrolo[2,3-b]pyrazin-2-yl)amino)ethyl)phenyl)-6-(trifluoromethyl) nicotinamide]
> 6.52	> 6.52	C[C@H](Nc1cnc2cnn(C)c2n1)c1cccc(NC(=O)c2cnc3ccn(C)c3c2)c1 [Compound 46, (S)-1-methyl-N-(3-(1-((1-methyl-1H-pyrazolo[3,4-b]pyrazin-6-yl)amino)ethyl)phenyl)-1H-pyrrolo[3,2-b] pyridine-6-carboxamide]
> 6.52	≤ 6.00	CCn1cc2ncc(N[C@@H](C)c3cc(NC(=O)Cc4ccc(C5CC5)nc4)ccc3C)nc2n1 [Compound 665, (S)-2-(6-cyclopropylpyridin-3-yl)-N-(3-(1-((2-ethyl-2H-pyrazolo[3,4-b]pyrazin-6-yl)amino)ethyl)-4-methylphenyl) acetamide]
> 6.52	6.00 to 6.52	CCn1cc2ncc(N[C@@H](C)c3cccc(NC(=O)c4cnc(C(C)O)s4)c3)nc2n1 (stereo partly drawn) [Compound 381, N-(3-((S)-1-((2-ethyl-2H-pyrazolo[3,4-b]pyrazin-6-yl)amino)ethyl)phenyl)-2-(1-hydroxyethyl)thiazole-5-carboxamide]
> 6.52	> 6.52	Cc1cncc(C(=O)Nc2cccc([C@H](C)Nc3cnc4[nH]nc(Br)c4n3)c2)c1 [Compound 549, (S)-N-(3-(1-((3-bromo-1H-pyrazolo[3,4-b]pyrazin-5-yl)amino)ethyl)phenyl)-5-methylnicotinamide]
6.00 to 6.52	6.00 to 6.52	CCn1cc2ncc(N[C@@H](C)c3cccc(NC(=O)c4ccc(C(F)(F)F)nc4)c3)nc2n1 [Compound 284, (S)-N-(3-(1-((2-ethyl-2H-pyrazolo[3,4-b]pyrazin-6-yl)amino)ethyl)phenyl)-6-(trifluoromethyl)nicotinamide]

Source: patent publication US20230102554A1 (GB002, INC., priority 2019, published 2023)
